One block for each compound: values may come before it.
Legend:
[1] = system: cat cardioaccelerator nerve; assay: Cat Cardioaccelerator Nerve Assay (in vivo peripheral dopamine agonist activity); conditions: for % inhibn of nerve stimulation: N=3; for peripheral dopamine agonist activity: in vivo, summary of Table I
Experimental: Cats were anesthetized by injection of pentobarbital sodium (30 mg/kg) into the thoracic cavity, and the surgical and experimental procedure was according to the procedure described in Cannon, J. G., et al. in J. Med. Chem. 1984, 27, 186. Experimental compounds were administered intravenously in doses of 0.33 log intervals.
The compounds 11, 15, and 18 were evaluated for in vivo dopamine agonist activity in the cat cardioaccelerator nerve assay.

nigrostriatal projection = assay: Rotation Assay (circling behavior, 6-hydroxydopamine unilateral denervation of the nigrostriatal projection); assay type: in vivo, Male Sprague-Dawley rats; conditions: for antagonism of apomorphine-induced rotations in rats: apomorphine 0.25 mg/kg, compound 4.0 mg/kg; for rotational behavior in rats with unilateral lesions of the nigrostriatal projection: dose 4.0 mg/kg
Experimental: Male Sprague-Dawley rats with 6-hydroxydopamine unilateral denervation of the nigrostriatal projection were used to test compounds for circling behavior according to the procedure of Cannon, et al. in J. Med. Chem 1984, 27, 186. Compounds were administered at a dose of 4.0 mg/kg and were also evaluated for their ability to antagonize apomorphine (0.25 mg/kg) induced rotations.
Finally, the compounds 11, 15, and 18 were evaluated for in vivo rat rotation assay.

dopamine receptor = assay: Dopamine Receptor Binding Studies ([^3 H]spiroperidol displacement, rat striatal tissue); conditions: [^3 H]spiroperidol 2 nM
Experimental: A method of Seeman, et al., Proc. Natl. Acad. Sci. U.S.A., 1975, 72, 4376, was employed using [^3 H]spiroperidol (2 nM) and rat striatal tissue.
Compound 11 was also evaluated for its ability to displace [^3 H] spiroperidol (2nm) from rat striatal tissue.

ability to displace [^3 H]spiroperidol from rat striatal tissue (dopamine receptor): inactive
SMILES: CN1CCCC2(OCCO2)C1Cc1cccc2[nH]ccc12 (stereo not drawn) [Compound 11, 6-(4-Indolylmethyl)-7-methyl-1,4-dioxa-7-azaspiro[4.5]decane]
% inhibn of nerve stimulation ([1]; dose 0.035, iv): 26 ± 19%
% inhibn of nerve stimulation ([1]; dose 0.105, iv): 48 ± 21%
% inhibn of nerve stimulation ([1]; dose 0.315, iv): 79 ± 11%
peripheral dopamine agonist activity [1]: effective agonist activity
antagonism of apomorphine-induced rotations in rats (nigrostriatal projection): nor did they antagonize apomorphine-induced rotations
rotational behavior in rats with unilateral lesions of the nigrostriatal projection (nigrostriatal projection): None of the compounds screened produced rotational behavior

SMILES: CN1CCCC2(OCCO2)C1Cc1ccccc1 (stereo not drawn) [Compound 18, 6-Benzyl-7-methyl-1,4-dioxa-7-azaspiro[4.5]decane]
% inhibn of nerve stimulation ([1]; dose 0.46, iv): 22 ± 11.7%
heart rate ([1]; dose 1.38, iv): Increased heart rate slightly at this dose
% inhibn of nerve stimulation ([1]; dose 1.38, iv): 18 ± 2.0%
arterial pressure ([1]; dose 4.60, iv): Increased arterial pressure at this dose
% inhibn of nerve stimulation ([1]; dose 4.60, iv): 36 ± 12.3%
peripheral dopamine agonist activity [1]: effective agonist activity
antagonism of apomorphine-induced rotations in rats (nigrostriatal projection): nor did they antagonize apomorphine-induced rotations
rotational behavior in rats with unilateral lesions of the nigrostriatal projection (nigrostriatal projection): None of the compounds screened produced rotational behavior

SMILES: CN1CCCC2(OCCO2)C1Cc1c[nH]c2ccccc12 (stereo not drawn) [Compound 15, 6-(3-Indolylmethyl)-7-methyl-1,4-dioxa-7-azaspiro[4.5]decane]
arterial pressure ([1]; dose 3.5, iv): Increased arterial pressure at this dose
heart rate ([1]; dose 3.5, iv): Increased heart rate slightly at this dose
% inhibn of nerve stimulation ([1]; dose 3.5, iv): 32 ± 17.4%
peripheral dopamine agonist activity [1]: effective agonist activity
antagonism of apomorphine-induced rotations in rats (nigrostriatal projection): nor did they antagonize apomorphine-induced rotations
rotational behavior in rats with unilateral lesions of the nigrostriatal projection (nigrostriatal projection): None of the compounds screened produced rotational behavior

Source: patent publication US4973593A, “Novel compounds for the treatment of hypertension” (Research Corporation Technologies, Inc., priority 1987, dated 1990)
